Tests used:
Conditions in all cases: 48 h
P12-Ichikawa [1] = experiment: AUC of viability dose-response curve (% viability x log10 dose units); higher = less sensitive
Summary of the method: (§1)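 Leukemia cells adapted to each medium were seeded in 1536-well plates (500 or 1000 cells/well) and given library compounds in DMSO for 48 h at 37°C. The 11 threefold doses spanned 47 μM to 0.79 nM, and CellTiter-Glo One luminescence was normalised per plate to DMSO and cell-free wells before four-parameter log-logistic fitting on log10 dose. Area under the curve was integrated with the trapezoidal rule, scaling curves above full viability and removing curves that failed quality control.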

SEM cells [2] = experiment: as above
Summary of the method: as §1

NOMO1 [3] = experiment: as above
Summary of the method: as §1

SEM cells [4] = experiment: cell viability relative to DMSO control; higher = less cytotoxic
Summary of the method: (§2)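 Before seeding, each leukemia line was adapted for at least four passages in each medium. NOMO1 or SEM cells (500 cells/well) and P12-Ichikawa cells (1000 cells/well) went into 1536-well plates at 5 μl, then received library compounds in DMSO by pin dosing across 11 threefold concentrations, 47 μM to 0.79 nM. Readout was CellTiter-Glo One luminescence after 48 h at 37°C, and viability is given as a per-plate percentage of DMSO wells, with cell-free wells as background.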

P12-Ichikawa [5] = experiment: as above
Summary of the method: as §2

NOMO1 [6] = experiment: as above
Summary of the method: as §2

CC(C)N(CCNC(=O)CN1CCCC1=O)C(C)C
AUC of viability dose-response curve
Conditions | NOMO1 [3] | P12-Ichikawa [1] | SEM cells [2]
HPLM + 10% dialyzed FBS | 430 | 460 | 477
RPMI 5 mM glucose + 10% FBS | 456 | 453 | 460
RPMI 5 mM glucose + 10% dialyzed FBS | 461 | 435 | 476

COC1CCC(C(=O)c2ccc3nc4c(cc3c2)CCCO4)CC1 (configuration not stated)
AUC of viability dose-response curve
Conditions | NOMO1 [3] | P12-Ichikawa [1] | SEM cells [2]
HPLM + 10% dialyzed FBS | 421 | 458 | 458
RPMI 5 mM glucose + 10% FBS | 430 | 453 | 422
RPMI 5 mM glucose + 10% dialyzed FBS | 437 | 460 | 438

O=C(Nc1cccc(Cl)c1)Nc1ncc(CCNc2ncnc3ccsc23)s1
AUC of viability dose-response curve
Conditions | NOMO1 [3] | P12-Ichikawa [1] | SEM cells [2]
HPLM + 10% dialyzed FBS | 362 | 290 | 301
RPMI 5 mM glucose + 10% FBS | 374 | 306 | 272
RPMI 5 mM glucose + 10% dialyzed FBS | 385 | 301 | 274

O=C1c2c(O)cc(O)cc2O[C@H](c2ccc(O)c(O)c2)[C@H]1O
cell viability [%], SEM cells [4]
Conditions | HPLM + 10% dialyzed FBS | RPMI 5 mM glucose + 10% FBS
0.000781 µM | 113 | 121
0.00234 µM | 120 | 123
0.00702 µM | 132 | 136
0.0211 µM | 113 | 150
0.0632 µM | 117 | 126
0.19 µM | 125 | 126
0.569 µM | 127 | 122
1.71 µM | 143 | 122
5.12 µM | 126 | 127
15.4 µM | 127 | 125
46.1 µM | 131 | 128

AUC of viability dose-response curve
Conditions | NOMO1 [3] | P12-Ichikawa [1] | SEM cells [2]
HPLM + 10% dialyzed FBS | 469 | 459 | 454
RPMI 5 mM glucose + 10% FBS | 475 | 453 | 470
RPMI 5 mM glucose + 10% dialyzed FBS | 453 | 465 | 450

C[C@@H]\1COC(=N1)\NC2=CC3=C(C=C2)N=CN=C3NC4=CC(=C(OCC5=NC=CS5)C=C4)Cl
AUC of viability dose-response curve
Conditions | NOMO1 [3] | P12-Ichikawa [1] | SEM cells [2]
HPLM + 10% dialyzed FBS | 454 | 455 | 461
RPMI 5 mM glucose + 10% FBS | 447 | 447 | 457
RPMI 5 mM glucose + 10% dialyzed FBS | 463 | 449 | 457

CN(CC#C)C/C1=C/C2=CC=CC=C2OC3=CC=CC=C13
cell viability [%]
Conditions | NOMO1 [6] | P12-Ichikawa [5] | SEM cells [4]
HPLM + 10% dialyzed FBS, 0.000781 µM | 82.4 | 91 | 90.9
HPLM + 10% dialyzed FBS, 0.00234 µM | 98.5 | 85 | 90.7
HPLM + 10% dialyzed FBS, 0.00702 µM | 91.5 | 92 | 79.7
HPLM + 10% dialyzed FBS, 0.0211 µM | 89.2 | 87.6 | 80.1
HPLM + 10% dialyzed FBS, 0.0632 µM | 98.9 | 90.8 | 76.8
HPLM + 10% dialyzed FBS, 0.19 µM | 91.2 | 89.6 | 40.6
HPLM + 10% dialyzed FBS, 0.569 µM | 85.2 | 90.1 | 32.1
HPLM + 10% dialyzed FBS, 1.71 µM | 70.4 | 80.8 | 91.6
HPLM + 10% dialyzed FBS, 5.12 µM | 82.3 | 84.1 | 30.1
HPLM + 10% dialyzed FBS, 15.4 µM | 65.1 | 83 | 49.2
HPLM + 10% dialyzed FBS, 46.1 µM | 64 | 87.1 | 42
RPMI 5 mM glucose + 10% FBS, 0.000781 µM | 81.3 | 91.8 | 100
RPMI 5 mM glucose + 10% FBS, 0.00234 µM | 85.1 | 86.1 | 109
RPMI 5 mM glucose + 10% FBS, 0.00702 µM | 82.2 | 88.2 | 113
RPMI 5 mM glucose + 10% FBS, 0.0211 µM | 94.4 | 91.2 | 105
RPMI 5 mM glucose + 10% FBS, 0.0632 µM | 86.3 | 92.6 | 83.3
RPMI 5 mM glucose + 10% FBS, 0.19 µM | 77.5 | 84.7 | 49.9
RPMI 5 mM glucose + 10% FBS, 0.569 µM | 92.6 | 76.5 | 36.8
RPMI 5 mM glucose + 10% FBS, 1.71 µM | 81.3 | 83.3 | 117
RPMI 5 mM glucose + 10% FBS, 5.12 µM | 80 | 78.4 | 41.4
RPMI 5 mM glucose + 10% FBS, 15.4 µM | 85.1 | 83.1 | 61.3
RPMI 5 mM glucose + 10% FBS, 46.1 µM | 75.5 | 82 | 50.3
RPMI 5 mM glucose + 10% dialyzed FBS, 0.000781 µM | 89.1 | 83.3 | 80.4
RPMI 5 mM glucose + 10% dialyzed FBS, 0.00234 µM | 81.7 | 81 | 85.3
RPMI 5 mM glucose + 10% dialyzed FBS, 0.00702 µM | 83.8 | 89.8 | 81.2
RPMI 5 mM glucose + 10% dialyzed FBS, 0.0211 µM | 87 | 87.8 | 69.2
RPMI 5 mM glucose + 10% dialyzed FBS, 0.0632 µM | 91.5 | 88 | 60.6
RPMI 5 mM glucose + 10% dialyzed FBS, 0.19 µM | 78.4 | 87.9 | 32.8
RPMI 5 mM glucose + 10% dialyzed FBS, 0.569 µM | 81.1 | 88.4 | 29.1
RPMI 5 mM glucose + 10% dialyzed FBS, 1.71 µM | 84.4 | 76.5 | 103
RPMI 5 mM glucose + 10% dialyzed FBS, 5.12 µM | 93.6 | 77.2 | 29.2
RPMI 5 mM glucose + 10% dialyzed FBS, 15.4 µM | 87.1 | 82 | 47.3
RPMI 5 mM glucose + 10% dialyzed FBS, 46.1 µM | 80.6 | 78.4 | 37.7

AUC of viability dose-response curve
Conditions | HPLM + 10% dialyzed FBS | RPMI 5 mM glucose + 10% FBS | RPMI 5 mM glucose + 10% dialyzed FBS
NOMO1 [3] | 401 | 400 | 407
P12-Ichikawa [1] | 417 | 407 | 400
